Laboratory results as given in ChEMBL document CHEMBL3045533, “Synthesis and cytotoxicity of 1-phenylethanolamine carboxamide derivatives: effects on the cell cycle” (Med Chem Res, 2010).
Converted amounts (≈) assume the structure as drawn. The source made the active and inactive calls. The rule behind the calls is not given here.

Tests used:
L1210 [1] = assay: Induction of apoptosis in Mus musculus (mouse) L1210 cells assessed as apoptotic cells at 500 uM after 3 hr by PI/annexin V-staining based flow cytometric analysis (reference value: 30%); format: functional
L1210 [2] = assay: Induction of apoptosis in Mus musculus (mouse) L1210 cells assessed as viable cells at 500 uM after 3 hr by PI/annexin V-staining based flow cytometric analysis (reference value: 32%); format: functional; conditions: L1210, 3 h, read-out: Activity
L1210 [3] = assay: Induction of apoptosis in Mus musculus (mouse) L1210 cells assessed as cell death at 500 uM after 3 hr by PI/annexin V-staining based flow cytometric analysis (reference value: 5.3%); format: functional
L1210 [4] = assay: Induction of apoptosis in Mus musculus (mouse) L1210 cells at 500 uM after 3 hr by PI-staining based flow cytometric analysis; format: functional, cell-based
B16 = assay: Cytotoxicity against Mus musculus (mouse) B16 cells after 72 hr by MTT assay; format: functional, cell-based; conditions: B16, 72 h
L1210 [5] = assay: Cytotoxicity against Mus musculus (mouse) L1210 cells after 72 hr by MTT assay; format: functional, cell-based; conditions: L1210, 72 h
U-937 = assay: Cytotoxicity against Homo sapiens (human) U937 cells; format: functional, cell-based

Structure (SMILES) | IC50 (B16) | IC50 (L1210 [5]) | further results
COc1ccc2[nH]c(C(=O)NCC(O)c3ccc(N)cc3)cc2c1 (centres undefined) | 87 µM | 50 µM | Activity (L1210 [1]): 41%; viability at 500 µM (L1210 [2]): 48%; Activity (L1210 [3]): 7%; Activity (L1210 [4]): Active
COc1ccc2[nH]c(C(=O)NCC(O)c3ccccc3)cc2c1 (centres undefined) | 84 µM | 25 µM | –
COc1cccc(/C=C/C(=O)NCC(O)c2ccccc2)c1 (centres undefined) | > 100 µM | 64 µM | –
COc1ccc(/C=C/C(=O)NCC(O)c2ccc(N)cc2)cc1 (centres undefined) | 93 µM | > 100 µM | –
O=C(/C=C/c1ccc([N+](=O)[O-])cc1)NCC(O)c1ccccc1 (centres undefined) | > 100 µM | > 100 µM | –
Nc1ccc(C(O)CNC(=O)/C=C/c2ccc([N+](=O)[O-])cc2)cc1 (centres undefined) | 53 µM | 64 µM | –
COc1ccc(/C=C/C(=O)NCC(O)c2ccccc2)cc1 (centres undefined) | > 100 µM | > 100 µM | –
COc1cc(/C=C/C(=O)NC[C@@H](O)c2ccc(O)cc2)ccc1O | – | – | IC50 (U-937): 44 µg/mL (≈ 134 µM)
